Marks after values point to notes of the source that are not given here.
Key:
Alternaria solani = assay: In vivo preventive test on Alternaria solani (tomato); settings: evaluated 7 days after inoculation
Experimental: In Vivo Preventive Test on Alternaria solani (Tomato) • Solvent: 49 parts by weight of N,N-dimethylformamide • Emulsifier: 1 part by weight of alkylarylpolyglycolether To produce a suitable preparation of active compound, 1 part by weight of active compound is mixed with the stated amounts of solvent and emulsifier, and the concentrate is diluted with water to the desired concentration. To test for preventive activity, young plants are sprayed with the preparation of active compound at the stated rate of application. One day after this treatment, the plants are inoculated with an aqueous spore suspension of Alternaria solani. The plants remain for one day in an incubation cabinet at approximately 22° C. and a relative atmospheric humidity of 100%. Then the plants are placed in an incubation cabinet at approximately 20° C. and a relative atmospheric humidity of 96%. The test is evaluated 7 days after the inoculation. 0% means an efficacy which corresponds to that of the untreated control while an efficacy of 100% means that no disease is observed.

Sphaerotheca fuliginea = assay: In vivo preventive test on Sphaerotheca fuliginea (cucumber); settings: 500 ppm of active ingredient, evaluated 7 days after inoculation
Experimental: In Vivo Preventive Test on Sphaerotheca Fulicinea (Cucumber) • Solvent: 49 parts by weight of N,N-dimethylformamide • Emulsifier: 1 part by weight of alkylarylpolyglycolether To produce a suitable preparation of active compound, 1 part by weight of active compound is mixed with the stated amounts of solvent and emulsifier, and the concentrate is diluted with water to the desired concentration. To test for preventive activity, young plants are sprayed with the preparation of active compound at the stated rate of application. One day after this treatment, the plants are inoculated with an aqueous spore suspension of Sphaerotheca fuliginea. Then the plants are placed in a greenhouse at approximately 23° C. and a relative atmospheric humidity of approximately 70%. The test is evaluated 7 days after the inoculation. 0% means an efficacy which corresponds to that of the untreated control, while an efficacy of 100% means that no disease is observed.

[1] = log P by HPLC on reversed-phase column (C 18), EEC Directive 79/831 Annex V.A8; format: physicochemical; settings: 40° C., 0.1% aqueous formic acid and acetonitrile
Experimental: In table 1, the log P values were determined in accordance with EEC Directive 79/831 Annex V.A8 by HPLC (High Performance Liquid Chromatography) on a reversed-phase column (C 18), using the method described below: Temperature: 40° C.; Mobile phases: 0.1% aqueous formic acid and acetonitrile; linear gradient from 10% acetonitrile to 90% acetonitrile. Calibration was carried out using unbranched alkan-2-ones (comprising 3 to 16 carbon atoms) with known log P values (determination of the log P values by the retention times using linear interpolation between two successive alkanones). lambda-max-values were determined using UV-spectra from 200 nm to 400 nm and the peak values of the chromatographic signals.

Pyrenophora teres = assay: In vivo preventive test on Pyrenophora teres (barley); settings: 500 ppm of active ingredient, evaluated 7-9 days after inoculation
Experimental: In Vivo Preventive Test on Pyrenophora teres (Barley) • Solvent: 49 parts by weight of N,N-dimethylformamide • Emulsifier: 1 part by weight of alkylaryl polyglycol ether To produce a suitable preparation of active compound, 1 part by weight of active compound is mixed with the stated amounts of solvent and emulsifier, and the concentrate is diluted with water to the desired concentration. To test for preventive activity, young plants are sprayed with the preparation of active compound at the stated rate of application. One day after this treatment, the plants are inoculated with an aqueous spore suspension of Pyrenophora teres. The plants remain for 48 hours in an incubation cabinet at 22° C. and a relative atmospheric humidity of 100%. Then the plants are placed in a greenhouse at a temperature of approximately 20° C. and a relative atmospheric humidity of approximately 80%. The test is evaluated 7-9 days after the inoculation. 0% means an efficacy which corresponds to that of the untreated control while an efficacy of 100% means that no disease is observed.

Tomato = assay: Plant damages observed in the Alternaria solani preventive test (tomato); format: in vivo; settings: footnote to table B2
Experimental: In Vivo Preventive Test on Alternaria solani (Tomato) To test for preventive activity, young plants are sprayed with the preparation of active compound at the stated rate of application. One day after this treatment, the plants are inoculated with an aqueous spore suspension of Alternaria solani. The plants remain for one day in an incubation cabinet at approximately 22° C. and a relative atmospheric humidity of 100%. Then the plants are placed in an incubation cabinet at approximately 20° C. and a relative atmospheric humidity of 96%. Under the same conditions, high (at least 85%) to total protection is observed at a dose of 500 and 100 ppm of active ingredient with compound of example 12, 20 and 25, whereas poor (less than 20%) protection to 100% of plant damages is observed with compound 1.006, compound CMP1 (chloro analogue of compound 1.006) and compound CMP2 (fluoro analogue of compound 1.006) claimed in patent application WO-2009/153191 as in table B2: […]

Leptosphaeria nodorum = assay: In vivo preventive test on Leptosphaeria nodorum (wheat); settings: evaluated 8 days after inoculation
Experimental: In Vivo Preventive Test on Leptosphaeria nodorum (Wheat) • Solvent: 49 parts by weight of N,N-dimethylacetamide • Emulsifier: 1 part by weight of alkylaryl polyglycol ether To produce a suitable preparation of active compound, 1 part by weight of active compound or active compound combination is mixed with the stated amounts of solvent and emulsifier, and the concentrate is diluted with water to the desired concentration. To test for preventive activity, young plants are sprayed with the preparation of active compound or active compound combination at the stated rate of application. After the spray coating has been dried, the plants are sprayed with a spore suspension of Leptosphaeria nodorum. The plants remain for 48 hours in an incubation cabinet at approximately 20° C. and a relative atmospheric humidity of approximately 100%. The plants are placed in the greenhouse at a temperature of approximately 22° C. and a relative atmospheric humidity of approximately 80%. The test is evaluated 8 days after the inoculation. 0% means an efficacy which corresponds to that of the untreated control, while an efficacy of 100% means that no disease is observed.

Compound | Efficacy (Alternaria solani; 100 ppm of active ingredient) | Efficacy (Alternaria solani; 500 ppm of active ingredient) [%] | Efficacy (Sphaerotheca fuliginea) [%] | logP [1] | Efficacy (Pyrenophora teres) [%] | plant damages (Tomato; 100 ppm) | plant damages (Tomato; 500 ppm) | Efficacy (Leptosphaeria nodorum; 500 ppm of active ingredient) [%] | Efficacy (Leptosphaeria nodorum; 100 ppm of active ingredient) [%]
Cn1cc(C(=O)N2CCCCC2C2CCCCC2)c(C(F)F)n1 (stereo not shown) [Example 25] | 90% | 90 | 100 | 3.15 | 100 |  |  |  | 
Cn1cc(C(=O)N2CCCC2CC2CCCCC2)c(C(F)F)n1 (stereo not shown) [Example 15] |  | 89 | 85 | 3.33 | 100 |  |  |  | 
Cn1nc(C(F)F)c(C(=O)N2CCC[C@H]2COc2c(Cl)cc(Cl)cc2Cl)c1F [CMP2, [3-(difluoromethyl)-5-fluoro-1-methyl-1H-pyrazol-4-yl]{(2S)-2-[(2,4,6-trichlorophenoxy)methyl]pyrrolidin-1-yl}methanone] |  |  |  |  |  | ^(a)together with 100% of plant damages | ^(a)together with 100% of plant damages |  | 
Cn1nc(C(F)F)c(C(=O)N2CCCCC2CC2CCCCC2)c1F (stereo not shown) [Example 26] |  | 100 | 100 | 4.19 | 100 |  |  |  | 
Cn1nc(C(F)F)c(C(=O)N2CCCC2CC2CC3CCC2C3)c1F (stereo not shown) [Example 48] |  | 100 | 100 | 3.89 | 100 |  |  | 90 | 
Cn1nc(C(F)F)c(C(=O)N2CCCC2C2CCCCC2)c1Cl (stereo not shown) [Example 10] |  | 94 | 90 | 3.48 | 100 |  |  |  | 
Cn1nc(C(F)F)c(C(=O)N2CCCC2CC2CCCCC2)c1Cl (stereo not shown) [Example 16] |  | 94 |  | 3.89 | 100 |  |  | 70 | 
CCCCOCCC1CCCCN1C(=O)c1cn(C)nc1C(F)F (stereo not shown) [Example 30] |  | 89 |  | 2.80 | 95 |  |  |  | 
Cn1nc(C(F)F)c(C(=O)N2CCCCC2CCOCCC2CCCCC2)c1F (stereo not shown) [Example 44] |  | 89 |  | 4.67 | 100 |  |  |  | 
CCCCCCC1CCCN1C(=O)c1cn(C)nc1C(F)F (stereo not shown) [Example 6] |  | 94 |  | 3.37 | 95 |  |  |  | 
Cn1nc(C(F)F)c(C(=O)N2CCCCC2CCOCC2CCC2)c1F (stereo not shown) [Example 37] |  | 94 |  | 3.33 | 94 |  |  |  | 
Cn1cc(C(=O)N2CCCC2CC2CC3CCC2C3)c(C(F)F)n1 (stereo not shown) [Example 49] |  | 94 | 90 | 3.44 | 100 |  |  | 70 | 
Cn1nc(C(F)F)c(C(=O)N2CCC[C@H]2COc2c(Cl)cc(Cl)cc2Cl)c1Cl [CMP1, [5-chloro-3-(difluoromethyl)-1-methyl-1H-pyrazol-4-yl]{(2S)-2-[(2,4,6-trichlorophenoxy)methyl]pyrrolidin-1-yl}methanone, reference compound] |  |  |  |  |  | ^(a)together with 100% of plant damages | ^(a)together with 100% of plant damages | 0 | 0
Cn1cc(C(=O)N2CCCC2C2CCCCC2)c(C(F)F)n1 (stereo not shown) [Example 9] |  | 89 | 95 | 2.88 | 100 |  |  |  | 
Cn1nc(C(F)F)c(C(=O)N2CCCC2C2CCCCC2)c1F (stereo not shown) [Example 11] |  | 94 | 95 | 3.31 | 100 |  |  | 95 | 80
Cn1nc(C(F)F)c(C(=O)N2CCCCC2CCOCC2CC2)c1F (stereo not shown) [Example 35] |  | 94 |  | 2.66 | 94 |  |  |  | 
Cn1nc(C(F)F)c(C(=O)N2CCCCC2CCOCC2CCC2)c1Cl (stereo not shown) [Example 36] |  | 88 |  | 3.51 | 78 |  |  |  | 
COCCCC1CCCCN1C(=O)c1c(C(F)F)nn(C)c1F (stereo not shown) [Example 47] |  | 89 |  | 2.18 | 100 |  |  |  | 
Cn1cc(C(=O)N2CCC[C@H]2COc2c(Cl)cc(Cl)cc2Cl)c(C(F)F)n1 [Compound 1.006, [3-(difluoromethyl)-1-methyl-1H-pyrazol-4-yl]{(2S)-2-[(2,4,6-trichlorophenoxy)methyl]pyrrolidin-1-yl}methanone, reference compound] | 20 ^(b) % |  |  |  |  |  | ^(a)together with 100% of plant damages | 60 | 40
Cn1nc(C(F)F)c(C(=O)N2CCCC2C23CC4CC(CC(C4)C2)C3)c1F (stereo not shown) [Example 14] |  | 94 | 70 | 4.44 | 100 |  |  |  | 
Cn1nc(C(F)F)c(C(=O)N2CCCC2CC2CCCCC2)c1F (stereo not shown) [Example 17] |  | 94 | 100 | 3.78 | 100 |  |  | 95 | 80
CCCCCCC1CCCCN1C(=O)c1c(C(F)F)nn(C)c1Cl (stereo not shown) [Example 21] |  | 100 |  | 4.39 | 100 |  |  |  | 
Cn1nc(C(F)F)c(C(=O)N2CCCCC2C2CCCCC2)c1F (stereo not shown) [Example 24] |  | 94 | 95 | 3.60 | 100 |  |  |  | 
CCCCCCC1CCCN1C(=O)c1c(C(F)F)nn(C)c1F (stereo not shown) [Example 8] |  |  | 98 | 3.80 | 100 |  |  | 95 | 90
